The values that follow come from patent publication US11179363B2, “Non-steroidal selective glucocorticoid receptor agonistic modulators (SEGRAMs) and uses thereof” (ASSOCIATION POUR LA RECHERCHE À L'IGBMC (ARI), priority 2017, dated 2021).

The target of assay [1] is T1, glucocorticoid receptor (GR) (Mus musculus, UniProt P06537).
T1 construct: RNA transcripts were then extracted from mouse ears; from tissue; host or cells: ear skin of Balb/C mice (in vivo topical treatment)
T1 sequence (P06537 1-792): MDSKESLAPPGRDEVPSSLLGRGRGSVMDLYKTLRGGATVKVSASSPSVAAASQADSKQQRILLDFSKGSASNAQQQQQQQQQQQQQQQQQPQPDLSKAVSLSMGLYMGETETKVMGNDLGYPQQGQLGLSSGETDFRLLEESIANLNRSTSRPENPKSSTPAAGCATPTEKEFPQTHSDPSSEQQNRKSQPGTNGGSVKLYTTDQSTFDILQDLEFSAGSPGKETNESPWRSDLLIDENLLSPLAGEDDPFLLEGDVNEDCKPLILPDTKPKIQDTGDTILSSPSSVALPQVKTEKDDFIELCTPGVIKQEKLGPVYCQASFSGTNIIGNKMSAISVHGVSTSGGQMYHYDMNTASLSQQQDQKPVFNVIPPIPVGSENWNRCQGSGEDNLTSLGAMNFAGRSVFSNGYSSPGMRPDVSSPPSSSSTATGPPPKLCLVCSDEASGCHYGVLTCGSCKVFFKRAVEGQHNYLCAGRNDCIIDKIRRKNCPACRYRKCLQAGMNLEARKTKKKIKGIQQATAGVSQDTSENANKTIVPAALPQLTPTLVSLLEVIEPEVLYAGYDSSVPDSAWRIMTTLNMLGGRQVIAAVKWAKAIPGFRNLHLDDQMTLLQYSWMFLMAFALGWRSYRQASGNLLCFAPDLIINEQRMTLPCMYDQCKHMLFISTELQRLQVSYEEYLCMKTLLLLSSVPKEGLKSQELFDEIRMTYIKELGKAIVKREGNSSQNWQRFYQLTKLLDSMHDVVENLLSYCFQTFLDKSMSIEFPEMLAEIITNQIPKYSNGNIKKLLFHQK
Briefly: In vivo transcriptional analysis (q-RT-PCR) of the three GR functions in mouse ears. On the set-up: species or system Balb/C mice. Particulars: topical 18 hours. The method, then:
RNA transcripts were then extracted from mouse ears and the transcripts of 4 genes were analyzed by q-RT-PCR: • (i) the directly GR-transactivated gene of the mTOR inhibitor REDD1, • (ii) the GR-directly transrepressed gene of keratin 5 (K5) and • (iii) the GR-indirectly “tethered” transrepressed genes of interleukin-1β (IL-1β) and interleukin-6 (IL-6), both being activated in presence of 12-O-tetradecanoylphorbol-13-acetate (TPA). Results

The test system of assay [2] is OVA-induced asthma-like allergic lung inflammation. In words: Ovalbumin (OVA)-induced asthma-like allergic lung inflammation. The assay is classed as in vivo, mice. The settings on record: OVA model. Here is the method: Glucocorticoids have been (Pearlman et al., 1997. Ann Allergy Asthma Immunol. 78(4):356-62), and are still, widely used in asthma therapy. In order to investigate the possible CpdX anti-inflammatory activity in vivo, mice were sensitized and challenged with either ovalbumin (OVA) or house dust mite (HDM) to induce an asthma-like allergic lung inflammation.
Mice were intraperitoneally sensitized with either 50 μg OVA together with alum or with alum alone on D0, D7 and D14. Mice were then subdivided into three groups, and on D19, D20 and D21, they were intranasally (i.n.) challenged with 10 μg OVA. The first and the second group received intranasally 0.5 mg/kg of body weight of Dex or CpdX respectively, while the third group served as a control.
On D22, the lung allergic inflammation was assessed for each mouse by examination of the bronchoalveolar lavage fluid (BAL). The total BAL cells, eosinophils, neutrophils, macrophages and lymphocytes were counted. RNA transcripts were extracted from lung samples and RNA transcripts of IL-1β, IL-6, IL-4, IL-5, IL-10, IL-13, Eotaxin, CCL4 and TNFα were analyzed by q-RT-PCR. Histological (with H&E staining) and immunohistochemical (with eosinophil-specific and neutrophil-specific antibodies) analyses of lung tissues were also carried out.

Assay [3] concerns the target T2, GR (Homo sapiens, UniProt P04150).
T2 sequence (P04150 1-777): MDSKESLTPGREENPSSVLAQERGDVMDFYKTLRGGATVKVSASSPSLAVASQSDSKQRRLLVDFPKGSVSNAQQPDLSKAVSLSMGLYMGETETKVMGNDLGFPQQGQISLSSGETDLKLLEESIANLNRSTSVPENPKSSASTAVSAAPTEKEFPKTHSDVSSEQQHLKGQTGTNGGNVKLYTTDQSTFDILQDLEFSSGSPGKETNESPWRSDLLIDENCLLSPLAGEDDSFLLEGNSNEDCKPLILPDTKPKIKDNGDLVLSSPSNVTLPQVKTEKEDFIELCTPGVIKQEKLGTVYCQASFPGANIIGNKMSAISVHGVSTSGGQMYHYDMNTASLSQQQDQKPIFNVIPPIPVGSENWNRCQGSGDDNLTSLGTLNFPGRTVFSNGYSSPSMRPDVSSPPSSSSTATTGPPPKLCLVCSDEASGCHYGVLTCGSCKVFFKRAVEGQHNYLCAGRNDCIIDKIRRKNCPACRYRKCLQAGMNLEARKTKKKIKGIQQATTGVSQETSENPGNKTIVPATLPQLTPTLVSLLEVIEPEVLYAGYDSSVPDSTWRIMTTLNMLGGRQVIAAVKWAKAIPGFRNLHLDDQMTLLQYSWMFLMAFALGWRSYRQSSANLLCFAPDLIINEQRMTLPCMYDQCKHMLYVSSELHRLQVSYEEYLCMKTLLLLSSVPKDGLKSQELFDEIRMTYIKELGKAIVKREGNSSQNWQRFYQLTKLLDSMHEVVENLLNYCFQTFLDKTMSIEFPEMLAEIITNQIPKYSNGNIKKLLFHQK
Particulars: cited from earlier work.

In the case of `COc1ccc(F)cc1C(C)(C)CC(O)(CNc1ccc2c(c1)COC2=O)C(F)(F)F` (racemic) [CpdX, 5-[4-(5-fluoro-2-methoxyphenyl)-2-hydroxy-4-methyl-2-(trifluoromethyl)pentylamino]-isobenzofuran-1(3H)-one], in assay [1] (1 nmole/cm^2), the “GR functions induced (direct transactivation, direct transrepression, indirect tethered transrepression)” value is “selectively exhibits an indirect tethered transrepression activity”. In addition, in assay [1] (1 nmole/cm^2, vs Vehicle), the “K5 gene relative RNA expression (GR direct transrepression)” value is on record as “unchanged” and the “REDD1 gene relative RNA expression (GR direct transactivation)” value was “unchanged”. Moreover, the “eosinophils and neutrophils in lung (immunohistochemistry)” value in assay [2] (data not shown) is “similarly decreased”. Also, in assay [2] (intranasal 0.5 mg/kg, D22), the “number of macrophages in BAL” value is given as “unchanged”. In assay [2] (intranasal 0.5 mg/kg, D22, vs control group), the “total number of BAL cells, eosinophils, neutrophils and lymphocytes” value was “significantly decreased”. Besides, the “peribronchiolar and perivascular inflammatory cell infiltration (histology)” value in assay [2] (lung paraffin sections) is recorded as “strongly decreased”. Moreover, in assay [2] (q-RT-PCR), the “lung expression of IL-1β, IL-6, IL-4, IL-5, IL-10, IL-13, Eotaxin, CCL4 and TNFα” value was “significantly and similarly decreased”. Also, in assay [3], the “indirect tethered transrepression activity of the GR” value is “still inducing”; the “transactivation and direct transrepression functions of the GR” value was “does not induce”.
